Several values for one entry are separate records, joined by “and”; a condition that tells them apart may be missing. Identical values can stand only once. Activity calls are given as the source filed them.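 The calls were made as follows: active = mean EC50 of 20 µM or lower; inactive = the rest.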
Molecular target: Neurotensin receptor type 2 (Homo sapiens) (UniProt O95665)
Experiment: beta-arrestin recruitment via NTR2 activation – imaging, NTR2-U2OS cells, beta-arrestin GFP imaging, selectivity assay for NTR1 agonist project, SAR follow-up (AID 588495)
Settings: image-based GFP translocation

Neurotensin receptor type 2 (Homo sapiens), sequence (O95665 whole entry, looked up): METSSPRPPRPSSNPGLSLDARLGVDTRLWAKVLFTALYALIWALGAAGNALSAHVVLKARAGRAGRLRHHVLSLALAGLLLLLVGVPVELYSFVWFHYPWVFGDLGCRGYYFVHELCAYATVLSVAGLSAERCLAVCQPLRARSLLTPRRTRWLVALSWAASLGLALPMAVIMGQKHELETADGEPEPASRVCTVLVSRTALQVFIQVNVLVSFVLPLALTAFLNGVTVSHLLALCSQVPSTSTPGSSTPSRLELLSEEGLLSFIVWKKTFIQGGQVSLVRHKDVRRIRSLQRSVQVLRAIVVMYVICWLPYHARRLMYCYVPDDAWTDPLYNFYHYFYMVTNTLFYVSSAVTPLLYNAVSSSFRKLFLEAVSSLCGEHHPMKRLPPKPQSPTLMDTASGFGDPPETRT

In the case of `CC(C)C[C@H](NC(=O)c1cn(-c2ccnc3ccccc23)c2c(OCc3ccccc3)cccc12)C(=O)O`, the EC50 is reported as > 40 µM (inactive).

`Clc1ccccc1-n1ncc2c(N3CCN(c4ccccc4)CC3)ncnc21` was tested, and the EC50 was > 40 µM (inactive).

In the case of `CCc1ccc(-c2nnc3c4cc(OC)c(OC)cc4n(Cc4ccccc4)cc2-3)cc1`, the EC50 is reported as > 40 µM (inactive).

With `O=S(=O)(c1ccc(-c2csc(N/N=C/c3ccco3)n2)cc1)N1CCCC1` the EC50 was > 40 µM (inactive).

In the case of `COc1cc2nc(C3CCC3)nc(N3CCN(c4ccccc4)CC3)c2cc1OC`, the EC50 is reported as > 40 µM (inactive).

For `Cc1cccc(C)c1-c1nc(C(=O)N[C@@H](CC(C)C)C(=O)O)cn1-c1ccnc2cc(Cl)ccc12`, the EC50 was > 40 µM (inactive).

In the case of `CCCSc1nc2cc(OC)c(OC)cc2c(=N)n1Cc1ccccc1Cl`, the EC50 is reported as > 40 µM (inactive).

`COc1cccc(OC)c1-c1nc(C(=O)N[C@@H](CC(C)C)C(=O)O)cn1-c1cccc2ccccc12` was tested, and the EC50 was > 40 µM (inactive).

With `COc1cc2c3nnc(-c4ccc(C)c(C)c4)c-3cn(Cc3ccc(C)cc3)c2cc1OC` the EC50 was “inactive”.

`COc1cccc(OC)c1-c1nc(C(=O)N[C@@H](CC(C)C)C(=O)O)cn1-c1ccnc2cc(Cl)ccc12` was tested, and the EC50 was > 40 µM (inactive).

With `Cc1ccc(Cn2cc3c(-c4ccc(F)cc4)nnc-3c3ccccc32)cc1` the EC50 was > 40 µM (inactive).

For `CCOc1cc2c(N3CCN(c4ccccc4OC)CC3)nc(-c3ccc(OC)c(OC)c3)nc2cc1OC`, the EC50 was > 40 µM (inactive).

In the case of `COc1cc2nc(-c3ccccc3)nc(N3CCN(c4ccc(F)cc4)CC3)c2cc1OC`, the EC50 is reported as > 40 µM (inactive).

With `COc1cc2nc(-c3ccccc3)nc(N3CCN(c4ccc(Cl)cc4)CC3)c2cc1OC` the EC50 was > 40 µM (inactive).

With `COc1cc2nc(C3CCC3)nc(N3CCN(c4ccccc4OC)CC3)c2cc1OC` the EC50 was > 40 µM (inactive).

In the case of `COc1cc2nc(C3CCC3)nc(N3CCN(c4ccccc4C)CC3)c2cc1OC`, the EC50 is reported as > 40 µM (inactive).

For `CC(C)C[C@H](NC(=O)c1nc(-c2ccncc2)c(-c2ccccc2)s1)C(=O)O`, the EC50 was > 40 µM (inactive).

With `COc1cccc2c(C(=O)N[C@@H](CC(C)C)C(=O)O)cn(-c3ccnc4ccccc34)c12` the EC50 was > 40 µM (inactive).

For `Cc1ccc(-n2ncc3c(N4CCN(c5ccccc5)CC4)ncnc32)c(C)c1`, the EC50 was > 40 µM (inactive).

`COc1ccccc1-c1cc(C(=O)O)nn1-c1ccnc2cc(Cl)ccc12` was tested, and the EC50 was > 40 µM (inactive).

With `COc1ccc2c(c1)c1nnc(-c3ccc(F)cc3)c-1cn2Cc1ccc(C)cc1` the EC50 was > 40 µM (inactive).

For `Cc1ccc(-n2ncc3c(N4CCN(c5ccccc5)CC4)ncnc32)cc1`, the EC50 was > 40 µM (inactive).

In the case of `COc1cc2nc(C)nc(N3CCN(c4ccccc4OC)CC3)c2cc1OC`, the EC50 is reported as > 40 µM (inactive).

In the case of `CC(C)C[C@H](NC(=O)c1cn(-c2ccnc3ccccc23)c(-c2ccccc2)n1)C(=O)O`, the EC50 is reported as > 40 µM (inactive).

With `CCOc1ccc(-c2nnc3c4cc(OC)c(OC)cc4n(Cc4ccccc4)cc2-3)cc1` the EC50 was > 40 µM (inactive).

With `CC(C)C[C@H](NC(=O)c1cn(-c2ccnc3cc(Cl)ccc23)c(-c2ccccc2)n1)C(=O)O` the EC50 was > 40 µM (inactive).

`Cc1ccc(-n2ncc3c(N4CCN(c5cccc(Cl)c5)CC4)ncnc32)c(C)c1` was tested, and the EC50 was > 40 µM (inactive).

`COc1cc2nc(C3CCC3)nc(N3CCN(c4ccccc4Cl)CC3)c2cc1OC` was tested, and the EC50 was > 40 µM (inactive).

In the case of `COc1ccccc1N1CCN(c2ncnc3c2cnn3-c2ccc(C)cc2C)CC1`, the EC50 is reported as > 40 µM (inactive).

In the case of `Cc1cccc(-n2ncc3c(N4CCN(c5ccccc5)CC4)ncnc32)c1`, the EC50 is reported as > 40 µM (inactive).

In the case of `CCOc1cc2nc(-c3ccc(OC)c(OC)c3)nc(N3CCN(c4ccccc4)CC3)c2cc1OC`, the EC50 is reported as > 40 µM (inactive).

`COc1ccccc1-c1cc(C(=O)N[C@@H](CC(C)C)C(=O)O)nn1-c1ccnc2cc(Cl)ccc12` was tested, and the EC50 was > 40 µM (inactive).

For `c1ccc(N2CCN(c3ncnc4c3cnn4-c3ccccc3)CC2)cc1`, the EC50 was > 40 µM (inactive).

In the case of `COc1ccccc1-c1nc(C(=O)N[C@@H](CC(C)C)C(=O)O)cn1-c1ccnc2cc(Cl)ccc12`, the EC50 is reported as > 40 µM (inactive).

With `COc1cccc2c(C(=O)N[C@@H](CC(C)C)C(=O)O)cn(-c3ccnc4cc(Cl)ccc34)c12` the EC50 was > 40 µM (inactive).

`CCN(CC)S(=O)(=O)c1ccc(-c2csc(N/N=C/c3ccco3)n2)cc1` was tested, and the EC50 was > 40 µM (inactive).

In the case of `CN(C)S(=O)(=O)c1ccc(-c2csc(N/N=C/c3ccc(C(C)(C)C)cc3)n2)cc1`, the EC50 is reported as > 40 µM (inactive).

With `COc1cccc(OC)c1-c1nc(C(=O)NC2(C(=O)O)C3CC4CC(C3)CC2C4)cn1-c1ccnc2cc(Cl)ccc12` (configuration not stated) the EC50 was > 40 µM (inactive).

With `O=C(O)c1nc(-c2ccnc3ccccc23)c(-c2ccccc2)s1` the EC50 was > 40 µM (inactive).

`COc1cc2c3nnc(-c4ccc(Cl)cc4)c-3cn(Cc3ccc(F)cc3)c2cc1OC` showed an EC50 of 7.78 µM.

In the case of `COc1ccc(N2CCN(c3nc(C4CCC4)nc4cc(OC)c(OC)cc34)CC2)cc1`, the EC50 is reported as > 40 µM (inactive).

`O=S(=O)(c1ccc(-c2csc(N/N=C/c3ccco3)n2)cc1)N1CCOCC1` was tested, and the EC50 was > 40 µM (inactive).

With `COc1ccc(Cn2c(SCc3ccccc3C)nc3cc(OC)c(OC)cc3c2=N)cc1Cl` the EC50 was > 40 µM (inactive).

`COc1cccc(OC)c1-c1cc(C(=O)O)nn1-c1ccnc2cc(Cl)ccc12` was tested, and the EC50 was > 40 µM (inactive).

For `CCOc1ccc(-c2nnc3c4cc(OC)c(OC)cc4n(Cc4ccc(F)cc4)cc2-3)cc1`, the EC50 was “inactive”.

For `Cc1ccc(-n2ncc3c(N4CCN(c5ccc([N+](=O)[O-])cc5)CC4)ncnc32)c(C)c1`, the EC50 was > 40 µM (inactive).

`COc1ccc(Cn2c(SCc3cccc(C(F)(F)F)c3)nc3cc(OC)c(OC)cc3c2=N)cc1Cl` was tested, and the EC50 was > 40 µM (inactive).

`Clc1cccc(-n2ncc3c(N4CCN(c5ccccc5)CC4)ncnc32)c1` was tested, and the EC50 was > 40 µM (inactive).

`COc1ccc(Cn2c(SCc3cc(C)ccc3C)nc3cc(OC)c(OC)cc3c2=N)cc1Cl` was tested, and the EC50 was > 40 µM (inactive).

With `COc1ccc(-c2nc(C(=O)N[C@@H](CC(C)C)C(=O)O)cn2-c2ccnc3cc(Cl)ccc23)c(OC)c1` the EC50 was > 40 µM (inactive).

`COc1cc2c3nnc(-c4ccc(C)c(C)c4)c-3cn(Cc3ccccc3)c2cc1OC` was tested, and the EC50 was > 40 µM (inactive).

Work on `COc1cc2c3nnc(-c4ccc(C)c(C)c4)c-3cn(Cc3ccc(F)cc3)c2cc1OC` yielded an EC50 of 4.38 µM.

For `Cc1ccc(-n2ncc3c(N4CCN(c5ccc(F)cc5)CC4)ncnc32)c(C)c1`, the EC50 was > 40 µM (inactive).

In the case of `CC(C)C[C@H](NC(=O)c1cn(-c2ccncc2)c(-c2ccccc2)n1)C(=O)O`, the EC50 is reported as > 40 µM (inactive).

`COc1ccc(/C=N/Nc2nc(-c3ccc(S(=O)(=O)N(C)C)cc3)cs2)cc1OC` was tested, and the EC50 was > 40 µM (inactive).

In the case of `COc1cc2c3nnc(-c4ccccc4)c-3cn(Cc3ccc(C)cc3)c2cc1OC`, the EC50 is reported as > 40 µM (inactive).

`COc1cc2nc(-c3ccccc3)nc(N3CCN(c4ccccc4F)CC3)c2cc1OC` was tested, and the EC50 was > 40 µM (inactive).

For `COc1cccc(OC)c1-c1cc(C(=O)N[C@@H](CC(C)C)C(=O)OC(C)(C)C)nn1-c1ccnc2cc(Cl)ccc12`, the EC50 was > 40 µM (inactive).

With `Cc1ccc(C)c(-n2ncc3c(N4CCN(c5ccccc5)CC4)ncnc32)c1` the EC50 was > 40 µM (inactive).

In the case of `Clc1ccc(-n2ncc3c(N4CCN(c5ccccc5)CC4)ncnc32)cc1`, the EC50 is reported as > 40 µM (inactive).

In the case of `CC(C)C[C@H](NC(=O)c1nc(-c2ccnc3ccccc23)c(-c2ccccc2)s1)C(=O)O`, the EC50 is reported as > 40 µM (inactive).

For `COc1ccc(-c2nnc3c4cc(OC)c(OC)cc4n(Cc4ccccc4)cc2-3)cc1`, the EC50 was > 40 µM (inactive).

In the case of `COc1cc2c3nnc(-c4ccc(F)cc4)c-3cn(Cc3cccc(C)c3)c2cc1OC`, the EC50 is reported as 4.47 µM.

With `COc1cc2nc(SCc3ccncc3)n(Cc3cccc(C(F)(F)F)c3)c(=N)c2cc1OC` the EC50 was > 40 µM (inactive).

For `COc1cc2c3nnc(-c4ccc(F)cc4)c-3cn(Cc3ccc(F)cc3)c2cc1OC`, the EC50 was 9.69 µM.

Compound `COc1ccc(-c2nnc3c4cc(OC)c(OC)cc4n(Cc4ccc(C)cc4)cc2-3)cc1` has an EC50 of 5.48 µM.

`Fc1ccc(-n2ncc3c(N4CCN(c5ccccc5)CC4)ncnc32)cc1` was tested, and the EC50 was > 40 µM (inactive).

For `CC(C)C[C@H](NC(=O)c1cn(-c2ccnc3cc(Cl)ccc23)c2ccccc12)C(=O)O`, the EC50 was > 40 µM (inactive).

For `c1ccc(Cn2cc3c(-c4ccccc4)nnc-3c3ccccc32)cc1`, the EC50 was > 40 µM (inactive).

With `CN(C)S(=O)(=O)c1ccc(-c2csc(N/N=C/c3cccs3)n2)cc1` the EC50 was > 40 µM (inactive).

For `COc1cccc(N2CCN(c3ncnc4c3cnn4-c3ccc(C)cc3C)CC2)c1`, the EC50 was > 40 µM (inactive).

For `COc1cc2nc(-c3ccccc3)nc(N3CCN(c4ccccc4OC)CC3)c2cc1OC`, the EC50 was > 40 µM (inactive).

For `CN(C)S(=O)(=O)c1ccc(-c2csc(N/N=C/c3ccco3)n2)cc1`, the EC50 was > 40 µM (inactive).

`COc1ccc(N2CCN(c3ncnc4c3cnn4-c3ccc(C)cc3C)CC2)cc1` was tested, and the EC50 was > 40 µM (inactive).

For `COc1cc2c3nnc(-c4ccccc4)c-3cn(Cc3ccc(F)cc3)c2cc1OC`, the EC50 was > 40 µM (inactive).

`COc1cc2c3nnc(-c4ccc(F)cc4)c-3cn(Cc3ccccc3)c2cc1OC` showed an EC50 of 6.02 µM.

In the case of `CC(C)C[C@H](NC(=O)c1cn(-c2ccnc3cc(Cl)ccc23)c(-c2c(Cl)cccc2Cl)n1)C(=O)O`, the EC50 is reported as > 40 µM (inactive).

In the case of `COc1ccccc1-c1nc(C(=O)N[C@@H](CC(C)C)C(=O)O)cn1-c1ccncc1`, the EC50 is reported as > 40 µM (inactive).

With `CCN(CC)c1ccc(/C=N/Nc2nc(-c3ccc(S(=O)(=O)N(C)C)cc3)cs2)cc1` the EC50 was > 40 µM (inactive).

With `COc1ccc(/C=N/Nc2nc(-c3ccc(S(=O)(=O)N(C)C)cc3)cs2)cc1` the EC50 was > 40 µM (inactive).

`COc1cc2c3nnc(-c4ccc(C)cc4)c-3cn(Cc3ccc(C)cc3)c2cc1OC` was tested, and the EC50 was 5.38 µM.

With `COc1ccc(Cn2c(SCc3ccc(C)cc3)nc3cc(OC)c(OC)cc3c2=N)cc1Cl` the EC50 was > 40 µM (inactive).

With `COc1cc2nc(C3CCC3)nc(N3CCN(c4ccccc4F)CC3)c2cc1OC` the EC50 was > 40 µM (inactive).

`CN(C)S(=O)(=O)c1ccc(-c2csc(N/N=C/c3ccccc3)n2)cc1` was tested, and the EC50 was > 40 µM (inactive).

`COc1ccccc1-c1cc(C(=O)N[C@@H](CC(C)C)C(=O)OC(C)(C)C)nn1-c1ccnc2cc(Cl)ccc12` was tested, and the EC50 was > 40 µM (inactive).

For `COc1cc2c3nnc(-c4ccc(F)cc4)c-3cn(Cc3ccc(C)cc3)c2cc1OC`, the EC50 was 4.14 µM and 3.32 µM.

For `COc1cc2ncnc(N3CCN(c4ccccc4OC)CC3)c2cc1OC`, the EC50 was > 40 µM (inactive).
